From US11510949B2, “Use of the treatment or improvement of sleep disorders by Lactobacillus brevis ProGA28 and/or its metabolites” (SYNGEN BIOTECH CO., LTD, priority 2019, dated 2022)

Test system: SHR rats
Assay: Sleep quality and quantity assessment in SHR rats after tube feeding (EEG/EMG sleep staging)
Format: in vivo
[1] = pure substance administered, FIG. 5

Experimental: The dosage of the test products used in the following examples is based on the daily human consumption of 8.3 mg/kg, and then according to the body surface area model coefficient of 6.2 to calculate the standard feeding dosage for rats being 52 mg/kg which is set as 1.0× dose given in the following examples.
The “sleep stage” called in the following examples includes the following three stages: awake (AW); quiet sleep (QS) which is equivalent to human non-rapid eye movement sleep (NREM) and paradoxical sleep (PS) which is equivalent to human rapid eye movement sleep (REM).
Frequency domain analysis of brain waves and myoelectric waves: each 16 seconds (1024 points) of brain wave signal acquisition is called a time window (or epoch), and is compared with 8 seconds before the next time window (50%) overlap for analysis. The fast Fourier transform is used to estimate the power spectral density and evaluate the activity of brain waves in different frequency bands. […]
Each test product was dissolved in drinking water and administered by tube feeding, the administration time was 1 hour before the light, and the physiological information of each group of rats was recorded at the beginning of the light, as a basis for sleep assessment.
In addition, pure gamma-aminobutyric acid was also administered to the SHR rats, and as described above, the physiological information of SHR rats was detected and recorded as a basis for sleep assessment.
The quality and quantity of sleep in the 24 hours after each test product was fed which was used as the range of sleep assessment:
The quantity of sleep: including the total time of sleep and wakefulness, the number of falling asleep and the average time of each sleep stage (duration) etc., and evaluate the quantity of sleep for each sleep stage; and the sleep of the group fed water is defined as 100%, used for comparing with the other groups fed test products to show the difference in each sleep stage.

Compound: NCCCC(=O)O [pure y-aminobutyric acid, γ-aminobutyric acid]
- quality and quantity of sleep (overall comparison of the figures, dose not specified): not helpful for the improvement
- sleep quality of rats [1]: not helpful to increase the sleep quality
- sleep time [1]: can not increase sleep time
